This is an account of results in PMC9295256 (Journal of medicinal chemistry, 2021).

Square brackets hold non-standard residues; d marks the D form. Peptide text beside a SMILES is read from it. * marks the point of attachment. Boc = CC(C)(C)OC(=O)*

For one assay, the target named is recombinant rat Nln (Rattus norvegicus, UniProt P42676). The assay is described as follows: Nln activation, continuous quenched fluorescence substrate. It is filed as biochemical.
Chain of recombinant rat Nln (P42676 38-704): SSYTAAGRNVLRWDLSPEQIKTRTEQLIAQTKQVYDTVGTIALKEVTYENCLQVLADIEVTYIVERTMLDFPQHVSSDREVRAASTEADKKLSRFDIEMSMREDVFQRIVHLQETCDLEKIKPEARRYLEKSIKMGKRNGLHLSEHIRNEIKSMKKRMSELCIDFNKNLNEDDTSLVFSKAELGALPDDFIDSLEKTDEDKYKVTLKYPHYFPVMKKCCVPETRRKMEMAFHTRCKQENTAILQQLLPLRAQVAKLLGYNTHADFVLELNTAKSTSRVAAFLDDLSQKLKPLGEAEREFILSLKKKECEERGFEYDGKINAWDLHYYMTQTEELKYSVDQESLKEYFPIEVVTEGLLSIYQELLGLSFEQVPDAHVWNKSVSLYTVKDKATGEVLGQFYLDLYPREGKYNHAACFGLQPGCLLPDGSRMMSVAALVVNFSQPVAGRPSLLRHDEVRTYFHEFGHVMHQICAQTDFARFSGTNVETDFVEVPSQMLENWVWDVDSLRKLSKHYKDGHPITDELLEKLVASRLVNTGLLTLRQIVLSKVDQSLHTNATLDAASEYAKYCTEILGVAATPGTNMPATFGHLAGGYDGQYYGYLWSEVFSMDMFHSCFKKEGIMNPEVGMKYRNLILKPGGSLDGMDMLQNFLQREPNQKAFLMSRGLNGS
Details: not given
Turning to `N[C@@H](Cc1cnc[nH]1)C(=O)N[C@@H](Cc1ccc(O)cc1)C(=O)O` [Compound 1, His–Tyr] (H-His-Tyr-OH), the “Amax, maximum % activation achieved (95% CI)” value (shortened to “Amax … (95% CI)”) is 465.2 (440.2 to 492.3) %. As to `N[C@@H](Cc1c[nH]cn1)C(=O)N[C@@H](Cc1c[nH]cn1)C(=O)O` [Compound 2, His–His], the “Amax … (95% CI)” value is listed as 498.1 (481 to 516.5) %. Turning to `N[C@@H](Cc1cnc[nH]1)C(=O)N[C@@H](Cc1ccccc1)C(=O)O` [Compound 3, His–Phe] (H-His-Phe-OH), the “Amax … (95% CI)” value is given as 442.3 (418.8 to 467.6) %.

Take `N[C@@H](Cc1ccc(O)cc1)C(=O)N[C@H](Cc1c[nH]cn1)C(=O)O` [Compound 4a, H-Tyr-His-OH]: the “Nln activation, result in words” value was “complete amelioration of Nln activation”. The same measure, in the same setting: in the case of `CC(C)(C)OC(=O)N[C@@H](Cc1ccc(O)cc1)C(=O)N[C@H](Cc1ccccc1)C(=O)O` [Compound 4b] (Boc-Tyr-[dF]-OH) it was “inactive”. As for `N[C@@H](Cc1c[nH]cn1)C(=O)NCCc1ccc(C(F)(F)F)cc1` [Compound 4k, (S)-2-Amino-3-(1H-imidazol-4-yl)-N-(4-(trifluoromethyl)-phenethyl)propanamide], the “Amax … (95% CI)” value is reported as 299.4 (283.9 to 316.2) %.

On to `N[C@H](Cc1c[nH]cn1)C(=O)NCCc1ccc(C(F)(F)F)cc1` [Compound 4l, (R)-2-Amino-3-(1H-imidazol-4-yl)-N-(4-(trifluoromethyl)-phenethyl)propanamide], for which the “Amax … (95% CI)” value is 330.1 (313.9 to 347.7) %. Still for that read-out and setting: in the case of `N[C@@H](Cc1c[nH]cn1)C(=O)NCCc1ccc([N+](=O)[O-])cc1` [Compound 4o, (S)-2-Amino-3-(1H-imidazol-4-yl)-N-(4-nitrophenethyl)-propanamide] it was 282.4 (266.5 to 299.5) %; in that of `N[C@H](Cc1c[nH]cn1)C(=O)NCCc1ccc([N+](=O)[O-])cc1` [Compound 4p, (R)-2-Amino-3-(1H-imidazol-4-yl)-N-(4-nitrophenethyl)-propanamide], 267.5 (250.1 to 287.1) %; in that of `N[C@@H](Cc1c[nH]cn1)C(=O)NCCc1ccc(-c2ccccc2)cc1` [Compound 4q, (S)-N-(2-([1,1′-Biphenyl]-4-yl)ethyl)-2-amino-3-(1H-imidazol-4-yl)propanamide], 258.2 (244 to 273.4) %. Same read-out and setting: in the case of `N[C@H](Cc1c[nH]cn1)C(=O)NCCc1ccc(-c2ccccc2)cc1` [Compound 4r, (R)-N-(2-([1,1′-biphenyl]-4-yl)ethyl)-2-amino-3-(1H-imidazol-4-yl)propanamide] it was 269.7 (256.8 to 283.4) %; in that of `N[C@@H](Cc1c[nH]cn1)C(=O)NCc1ccccc1` [Compound 5a, (S)-2-Amino-N-benzyl-3-(1H-imidazol-4-yl)propanamide], 152.2 (137.3 to 171.5) %; in that of `COc1ccc(CNC(=O)[C@@H](N)Cc2c[nH]cn2)cc1` [Compound 5b, (S)-2-Amino-3-(1H-3l4-imidazol-4-yl)-N-(4-methoxybenzyl)-propanamide], 428.8 (373 to 523.5) %. Consider `COc1ccc(CNC(=O)[C@H](N)Cc2cnc[nH]2)cc1` [Compound 5c, (R)-2-Amino-3-(1H-imidazol-4-yl)-N-(4-methoxybenzyl)-propanamide], for which the “Amax … (95% CI)” value is reported as 703.5 (588.9 to 915.6) %. Regarding `COc1ccccc1CNC(=O)[C@@H](N)Cc1c[nH]cn1` [Compound 5d, (S)-2-Amino-3-(1H-3l4-imidazol-4-yl)-N-(2-methoxybenzyl)-propanamide], the “Amax … (95% CI)” value is 385.8 (363.8 to 410.5) %.

In the case of `COc1ccccc1CNC(=O)[C@H](N)Cc1c[nH]cn1` [Compound 5e, (R)-2-Amino-3-(1H-3l4-imidazol-4-yl)-N-(2-methoxybenzyl)-propanamide], the “Amax … (95% CI)” value is 324.9 (304 to 349) %. Turning to `COc1cccc(CNC(=O)[C@@H](N)Cc2c[nH]cn2)c1` [Compound 5f, (S)-2-Amino-3-(1H-3l4-imidazol-4-yl)-N-(3-methoxybenzyl)-propanamide], the “Amax … (95% CI)” value is on record as 327.5 (309.7 to 348.2) %.

Consider `COc1cccc(CNC(=O)[C@H](N)Cc2cnc[nH]2)c1` [Compound 5g, (R)-2-Amino-3-(1H-3l4-imidazol-4-yl)-N-(3-methoxybenzyl)-propanamide], for which the “Amax … (95% CI)” value is on record as 477.1 (444 to 516) %. On the same count and under the same terms, in the case of `N[C@H](Cc1c[nH]cn1)C(=O)NCc1ccc(C(F)(F)F)cc1` [Compound 5i, (R)-2-Amino-3-(1H-imidazol-4-yl)-N-(4-(trifluoromethyl)benzyl)-propanamide] it was 319.1 (296.3 to 344.3) %; in that of `N[C@H](Cc1c[nH]cn1)C(=O)NCc1ccccc1C(F)(F)F` [Compound 5k, (R)-2-Amino-3-(1H-imidazol-4-yl)-N-(2-(trifluoromethyl)benzyl)-propanamide], 345.8 (317.5 to 378.3) %; in that of `N[C@H](Cc1c[nH]cn1)C(=O)NCc1cccc(C(F)(F)F)c1` [Compound 5m, (R)-2-Amino-3-(1H-imidazol-4-yl)-N-(3-(trifluoromethyl)benzyl)-propanamide], 282 (258.4 to 309.1) %. On to `N[C@@H](Cc1c[nH]cn1)C(=O)NCc1ccc(F)cc1` [Compound 5n, (S)-2-Amino-N-(4-fluorobenzyl)-3-(1H-imidazol-4-yl)-propanamide], for which the “Amax … (95% CI)” value is recorded as 293 (276.5–310.7) %. Still for that read-out and setting: as for `N[C@H](Cc1c[nH]cn1)C(=O)NCc1ccc(F)cc1` [Compound 5o, (R)-2-Amino-N-(4-fluorobenzyl)-3-(1H-imidazol-4-yl)-propanamide], the figure is 320.5 (299.7 to 343.9) %. Still for that read-out and setting: as for `N[C@@H](Cc1c[nH]cn1)C(=O)NCc1ccc(OC(F)(F)F)cc1` [Compound 5p, (S)-2-Amino-3-(1H-imidazol-4-yl)-N-(4-(trifluoromethoxy)-benzyl)propanamide], the figure is 310 (287.2 to 336.1) %; as for `N[C@H](Cc1c[nH]cn1)C(=O)NCc1ccc(OC(F)(F)F)cc1` [Compound 5q, (R)-2-Amino-3-(1H-imidazol-4-yl)-N-(4-(trifluoromethoxy)-benzyl)propanamide], 337.1 (312 to 364.9) %. On the same count and under the same terms, in the case of `N[C@@H](Cc1c[nH]cn1)C(=O)NCc1ccc(SC(F)(F)F)cc1` [Compound 5r, (S)-2-Amino-3-(1H-imidazol-4-yl)-N-(4-((trifluoromethyl)thio)-benzyl)propanamide] it was 287.5 (277.4 to 298.4) %. In the case of `N[C@H](Cc1c[nH]cn1)C(=O)NCc1ccc(SC(F)(F)F)cc1` [Compound 5s, (R)-2-Amino-3-(1H-imidazol-4-yl)-N-(4-((trifluoromethyl)thio)-benzyl)propanamide], the “Amax … (95% CI)” value is on record as 251.5 (233.7 to 271.3) %.

The same assay, now with this note: 100% = normal enzyme turnover; mean of n = 4, 95% CI in parentheses.
For the molecule `NC(Cc1c[nH]cn1)C(=O)NCCc1c[nH]c2ccccc12` (racemic) [(rac)-9a, (rac)-N-(2-(1H-Indol-3-yl)ethyl)-2-amino-3-(1H-imidazol-4-yl)-propanamide], the “Amax … (95% CI)” value is on record as 197 (177.5 to 222.8) %.

Consider `CC(C)(C)OC(=O)N[C@@H](Cc1ccc(O)cc1)C(=O)N[C@H](Cc1ccccc1)C(=O)O` [Compound 4b] (Boc-Tyr-[dF]-OH), for which the “Amax … (95% CI)” value is “Inactive”.

Take `N[C@@H](Cc1c[nH]cn1)C(=O)NCCc1ccccc1` [Compound 4c, (S)-2-Amino-3-(1H-imidazol-4-yl)-N-phenethylpropanamide]: the “Amax … (95% CI)” value was 337.2 (302 to 378.6) %.

For the molecule `N[C@H](Cc1c[nH]cn1)C(=O)NCCc1ccccc1` [Compound 4d, (R)-2-Amino-3-(1H-imidazol-4-yl)-N-phenethylpropanamide], the “Amax … (95% CI)” value was 294.6 (278.0 to 313) %.

On to `COc1ccc(CCNC(=O)[C@@H](N)Cc2c[nH]cn2)cc1` [Compound 4e, (S)-2-Amino-3-(1H-imidazol-4-yl)-N-(4-methoxyphenethyl)-propanamide], for which the “Amax … (95% CI)” value was 339.4 (314.2 to 369.3) %.

Turning to `COc1ccc(CCNC(=O)[C@H](N)Cc2c[nH]cn2)cc1` [Compound 4f, (R)-2-Amino-3-(1H-imidazol-4-yl)-N-(4-methoxyphenethyl)-propanamide], the “Amax … (95% CI)” value is reported as 378.3 (350.5 to 411.9) %. On to `COc1cccc(CCNC(=O)[C@H](N)Cc2c[nH]cn2)c1` [Compound 4j, (R)-2-Amino-3-(1H-imidazol-4-yl)-N-(3-methoxyphenethyl)-propanamide], for which the “Amax … (95% CI)” value is listed as 255.3 (230.5 to 284.8) %. `N[C@@H](Cc1c[nH]cn1)C(=O)Nc1ccccc1` [Compound 6a, (S)-2-Amino-3-(1H-imidazol-4-yl)-N-phenylpropanamide]: the “Amax … (95% CI)” value is listed as 466.6 (402.3 to 579.7) %. As to `N[C@H](Cc1c[nH]cn1)C(=O)Nc1ccccc1` [Compound 6b, (R)-2-Amino-3-(1H-imidazol-4-yl)-N-phenylpropanamide], the “Amax … (95% CI)” value is 440.3 (414.9 to 470.4) %. Same read-out and setting: as for `N[C@@H](Cc1c[nH]cn1)C(=O)NCCCc1ccccc1` [Compound 7a, (S)-2-Amino-3-(1H-imidazol-4-yl)-N-(3-phenylpropyl)-propanamide], the figure is 288.1 (273.6 to 303.8) %; as for `N[C@H](Cc1c[nH]cn1)C(=O)NCCCc1ccccc1` [Compound 7b, (R)-2-Amino-3-(1H-imidazol-4-yl)-N-(3-phenylpropyl)-propanamide], 281.8 (269.9 to 294.5) %.

Consider `N[C@@H](Cc1c[nH]cn1)C(=O)NCCCCc1ccccc1` [Compound 8a, (S)-2-Amino-3-(1H-imidazol-4-yl)-N-(4-phenylbutyl)-propanamide], for which the “Amax … (95% CI)” value is on record as 328 (309 to 351) %. On the same count and under the same terms, as for `N[C@H](Cc1c[nH]cn1)C(=O)NCCCCc1ccccc1` [Compound 8b, (R)-2-Amino-3-(1H-imidazol-4-yl)-N-(4-phenylbutyl)-propanamide], the figure is 233.8 (215.9 to 254.8) %.

Staying with this assay, now noted: recombinant rat Nln, QFS 15 μM, 37 °C; mean of n = 4, 95% CI in parentheses.
For the molecule `CC(C)(C)OC(=O)N[C@@H](Cc1ccc(O)cc1)C(=O)N[C@H](Cc1ccccc1)C(=O)O` [Compound 4b] (Boc-Tyr-[dF]-OH), the “A50, half maximal activation concentration (95% CI)” value is “Inactive”.
